The record followed here is patent US20230081426A1, “COMPOUNDS AND METHODS FOR KRAS MODULATION AND INDICATIONS THEREFOR” (Plexxikon Inc., priority 2020, published 2023).

Molecules are shown by their SMILES.

The target of experiment [1] is T1, G12C-mutant human KRAS (amino acid residues 1-188) (Homo sapiens, UniProt P01116, G12C).
T1 construct: G12D or G12C-mutant human KRAS (amino acid residues 1-188) with FLAG tag; made in house; host or cells: E. coli
Kind of experiment: KRAS Binding Disruption Assay (AlphaScreen; biotinylated KRpep-2d analogue or RAF1-RBD), G12C. To be noted: geometric mean, read-out: KRAS GMean IC50 (uM) MUTATION: G12C. The gist of the method: (§1)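 Compounds are titrated against 5-20 nM mutant KRAS and 5-20 nM of either a biotinylated KRpep-2d analogue or RAF1-RBD, incubated 1 h at 25° C. Disruption is detected as reduced Alpha signal after 1 h with donor and acceptor beads at 10 μg/mL.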
A general note: Alpha assays give light when donor and acceptor beads are brought close together.

Experiment [2] addresses T2, G12D-mutant human KRAS (amino acid residues 1-188) (Homo sapiens, UniProt P01116, G12D).
T2 construct: G12D or G12C-mutant human KRAS (amino acid residues 1-188) with FLAG tag; made in house; host or cells: E. coli
The experiment in a line: KRAS Binding Disruption Assay (AlphaScreen; biotinylated KRpep-2d analogue or RAF1-RBD), G12D. To be noted: KRAS G12D; geometric mean; read-out: KRAS GMean IC50 (uM) MUTATION: G12D. Summed up: as §1

Experiment [3] addresses T3, G12V-mutant human KRAS (amino acid residues 1-188) (Homo sapiens, UniProt P01116, G12V).
T3 construct: G12V-mutant human KRAS (amino acid residues 1-188) with FLAG tag was purified from E. coli; made in house; host or cells: E. coli
Kind of experiment: KRAS Binding Competition Assay (AlphaScreen; biotinylated KRpep-2d analogue), G12V. To be noted: geometric mean, read-out: KRAS GMean IC50 (uM) MUTATION: G12V.

One may read the IC50 as the concentration at which inhibition is half-maximal. For the compound `O=C(CC1CCNC1)N1[C@@H]2CC[C@H]1CN(c1nc(OCC34CCCN3CCC4)nc3cc(-c4cc(O)cc5ccccc45)ccc13)C2` (stereo partly drawn) [P-0110, 1-((1R,5S)-3-(7-(3-hydroxynaphthalen-1-yl)-2-((tetrahydro-1H-pyrrolizin-7a(5H)-yl)methoxy)quinazolin-4-yl)-3,8-diazabicyclo[3.2.1]octan-8-yl)-2-(pyrrolidin-3-yl)ethan-1-one], the IC50 in experiment [1], in experiment [2] and in experiment [3] was 0.0001 to 10 µM throughout.

`CN1CCC[C@H]1COc1nc(N2CC3CCC(C2)N3C(=O)Cc2ccc(N)cc2)c2ccc(-c3cc(O)cc4ccccc34)cc2n1` [P-0115]: the IC50 fell in the range of 0.0001 to 10 µM in experiment [1], 0.0001 to 10 µM in experiment [2] and 10 to 100 µM in experiment [3].

As for `CN1CCN(CCC(=O)N2[C@@H]3CC[C@H]2CN(c2nc(OC[C@@H]4CCCN4C)nc4cc(-c5cc(O)cc6ccccc56)ccc24)C3)CC1` [P-0116, 1-((1R,5S)-3-(7-(3-hydroxynaphthalen-1-yl)-2-(((S)-1-methylpyrrolidin-2-yl)methoxy)quinazolin-4-yl)-3,8-diazabicyclo[3.2.1]octan-8-yl)-3-(4-methylpiperazin-1-yl)propan-1-one], the IC50 lay in the range of 10 to 100 µM in experiment [1], 0.0001 to 10 µM in experiment [2] and 10 to 100 µM in experiment [3].

Consider `CN1CCC[C@H]1COc1nc(N2C[C@H]3CC[C@@H](C2)N3C(=O)Cc2c[nH]cn2)c2ccc(-c3cc(O)cc4ccccc34)cc2n1` [P-0117, 1-((1R,5S)-3-(7-(3-hydroxynaphthalen-1-yl)-2-(((S)-1-methylpyrrolidin-2-yl)methoxy)quinazolin-4-yl)-3,8-diazabicyclo[3.2.1]octan-8-yl)-2-(1H-imidazol-4-yl)ethan-1-one], for which the IC50 in experiment [1], in experiment [2] and in experiment [3] was 0.0001 to 10 µM in each case.

Turning to `CN1CCC[C@H]1COc1nc(N2C[C@H]3CC[C@@H](C2)N3C(=O)CN2CCCC2)c2ccc(-c3cc(O)cc4ccccc34)cc2n1` [P-0118, 1-((1R,5S)-3-(7-(3-hydroxynaphthalen-1-yl)-2-(((S)-1-methylpyrrolidin-2-yl)methoxy)quinazolin-4-yl)-3,8-diazabicyclo[3.2.1]octan-8-yl)-2-(pyrrolidin-1-yl)ethan-1-one], the IC50 lay within 0.0001 to 10 µM in experiment [1], 0.0001 to 10 µM in experiment [2] and 10 to 100 µM in experiment [3].

For the compound `CN1CCN(CCCC(=O)N2[C@@H]3CC[C@H]2CN(c2nc(OC[C@@H]4CCCN4C)nc4cc(-c5cc(O)cc6ccccc56)ccc24)C3)CC1` [P-0119, 1-((1R,5S)-3-(7-(3-hydroxynaphthalen-1-yl)-2-(((S)-1-methylpyrrolidin-2-yl)methoxy)quinazolin-4-yl)-3,8-diazabicyclo[3.2.1]octan-8-yl)-4-(4-methylpiperazin-1-yl)butan-1-one], the values for the IC50 in experiment [1], in experiment [2] and in experiment [3] were 0.0001 to 10 µM, 0.0001 to 10 µM and 10 to 100 µM, respectively.

With `CN1CCC[C@H]1COc1nc(N2C[C@H]3CC[C@@H](C2)N3C(=O)CCn2cccn2)c2ccc(-c3cc(O)cc4ccccc34)cc2n1` [P-0120, 1-((1R,5S)-3-(7-(3-hydroxynaphthalen-1-yl)-2-(((S)-1-methylpyrrolidin-2-yl)methoxy)quinazolin-4-yl)-3,8-diazabicyclo[3.2.1]octan-8-yl)-3-(1H-pyrazol-1-yl)propan-1-one], the IC50 in experiment [1], in experiment [2] and in experiment [3] was 0.0001 to 10 µM throughout.

With `CN1CCC[C@H]1COc1nc(N2C[C@H]3CC[C@@H](C2)N3C(=O)Cc2cnccn2)c2ccc(-c3cc(O)cc4ccccc34)cc2n1` [P-0121, 1-((1R,5S)-3-(7-(3-hydroxynaphthalen-1-yl)-2-(((S)-1-methylpyrrolidin-2-yl)methoxy)quinazolin-4-yl)-3,8-diazabicyclo[3.2.1]octan-8-yl)-2-(pyrazin-2-yl)ethan-1-one], the half-inhibitory concentration (IC50) in experiment [1] was 10 to 100 µM; in experiment [2], 0.0001 to 10 µM; in experiment [3] it was 10 to 100 µM.

Consider `O=C(N[C@@H]1CCNC1)N1[C@@H]2CC[C@H]1CN(c1nc(OCC34CCCN3CCC4)nc3cc(-c4cc(O)cc5ccccc45)ccc13)C2` [P-0122, (1R,5S)-3-(7-(3-hydroxynaphthalen-1-yl)-2-((tetrahydro-1H-pyrrolizin-7a(5H)-yl)methoxy)quinazolin-4-yl)-N-((R)-pyrrolidin-3-yl)-3,8-diazabicyclo[3.2.1]octane-8-carboxamide], for which the IC50 in experiment [1], in experiment [2] and in experiment [3] was 0.0001 to 10 µM each time.

`O=C(N[C@H]1CCNC1)N1[C@@H]2CC[C@H]1CN(c1nc(OCC34CCCN3CCC4)nc3cc(-c4cc(O)cc5ccccc45)ccc13)C2` [P-0123, (1R,5S)-3-(7-(3-hydroxynaphthalen-1-yl)-2-((tetrahydro-1H-pyrrolizin-7a(5H)-yl)methoxy)quinazolin-4-yl)-N-((S)-pyrrolidin-3-yl)-3,8-diazabicyclo[3.2.1]octane-8-carboxamide]: the IC50 in experiment [1], in experiment [2] and in experiment [3] was 0.0001 to 10 µM each time.

As to `CC1(NC(=O)N2[C@@H]3CC[C@H]2CN(c2nc(OCC45CCCN4CCC5)nc4cc(-c5cc(O)cc6ccccc56)ccc24)C3)CCNC1` (stereo partly drawn) [P-0124, (1R,5S)-3-(7-(3-hydroxynaphthalen-1-yl)-2-((tetrahydro-1H-pyrrolizin-7a(5H)-yl)methoxy)quinazolin-4-yl)-N-(3-methylpyrrolidin-3-yl)-3,8-diazabicyclo[3.2.1]octane-8-carboxamide], the half-inhibitory concentration (IC50) in experiment [1], in experiment [2] and in experiment [3] was 0.0001 to 10 µM in each case.

As for `O=C(NC1CNC1)N1[C@@H]2CC[C@H]1CN(c1nc(OCC34CCCN3CCC4)nc3cc(-c4cc(O)cc5ccccc45)ccc13)C2` [P-0125, (1R,5S)-N-(azetidin-3-yl)-3-(7-(3-hydroxynaphthalen-1-yl)-2-((tetrahydro-1H-pyrrolizin-7a(5H)-yl)methoxy)quinazolin-4-yl)-3,8-diazabicyclo[3.2.1]octane-8-carboxamide], the IC50 in experiment [1], in experiment [2] and in experiment [3] was 0.0001 to 10 µM throughout.

Regarding `O=C(Nc1cn[nH]c1)N1[C@@H]2CC[C@H]1CN(c1nc(OCC34CCCN3CCC4)nc3cc(-c4cc(O)cc5ccccc45)ccc13)C2` [P-0126, (1R,5S)-3-(7-(3-hydroxynaphthalen-1-yl)-2-((tetrahydro-1H-pyrrolizin-7a(5H)-yl)methoxy)quinazolin-4-yl)-N-(1H-pyrazol-4-yl)-3,8-diazabicyclo[3.2.1]octane-8-carboxamide], the IC50 in experiment [1], in experiment [2] and in experiment [3] was 0.0001 to 10 µM throughout.

On to `O=C(NCC1CCNC1)N1[C@@H]2CC[C@H]1CN(c1nc(OCC34CCCN3CCC4)nc3cc(-c4cc(O)cc5ccccc45)ccc13)C2` (stereo partly drawn) [P-0127, (1R,5S)-3-(7-(3-hydroxynaphthalen-1-yl)-2-((tetrahydro-1H-pyrrolizin-7a(5H)-yl)methoxy)quinazolin-4-yl)-N-(pyrrolidin-3-ylmethyl)-3,8-diazabicyclo[3.2.1]octane-8-carboxamide], for which the IC50 in experiment [1], in experiment [2] and in experiment [3] was 0.0001 to 10 µM each time.
